≈ marks a conversion by molar mass, not a printed value.
Tests used:
P. aeruginosa NH57388A [1] = assay: MIC, broth microdilution; format: cell-based; conditions: Pseudomonas aeruginosa, NH57388A, P. aeruginosa NIH57388A CF; read-out: MIC
Procedure: (§1) Bacterial strains MIC testing: P. aeruginosa ATCC 27853 and NH57388A were used in these studies. MICs were determined by a broth microdilution assay according to CLSI reference methods (Methods for dilution of antimicrobial susceptibility test for bacteria that grow aerobically. Seventh Edition: Clinical and Laboratory Standards Institute (2006) M&-A7, incorporated by reference in its entirety). Assays were performed in a final volume of 100 μl. The bacterial suspensions were adjusted to yield a cell density of 5×10^5 CFU/ml. Antibiotics were prepared at a concentration equivalent to twofold the highest desired final concentration in culture medium and were then diluted directly into 96-well microtiter plates. Microtiter plates were incubated for 24 h at 35° C. and were read by using a microtiter plate reader (Molecular Devices) at 600 nm as well as by visual observation by using a microtiter plate reading mirror.

P. aeruginosa ATCC 27853 = assay: MIC, broth microdilution; format: cell-based; conditions: Pseudomonas aeruginosa, ATCC27853, P. aeruginosa ATCC27853
Procedure: as §1

[2] = Standard kill-curve and in vitro hollow fiber assay; format: cell-based; conditions: high concentrations, 0.018-fold-[…] the MIC evaluated
Excerpt: Fluoroquinolone efficacy in humans, animals and in vitro models of infection is linked to AUC:MIC ratio and Cmax:MIC ratio.

[3] = Aerosol and IV levofloxacin in saline in normal healthy volunteers and CF subjects (serum, sputum, deconvolution); conditions: for Mean projected Cmax in the ELF: CF patients, ELF volume 25 ml; for AUC / Cmax / half-life / clearance: human, in vivo; for clearance: Total levofloxacin clearance, serum
Procedure: Safety, tolerability, and pharmacokinetics (serum, sputum, and urinary excretion) data were collected after each dose.
A weight of 1/y-observed was applied in the regression. Goodness of fit was assessed by the minimized objective function and inspection of weighted residual plots. […] Briefly, this analysis compares the appearance and elimination of drug following aerosol and intravenous doses to determine the amount of drug remaining in the lung (absorption compartment) over time. To estimate concentrations of drug in lung, amounts were divided by estimates of the epithelial lung fluid (ELF) volume (25 ml) for each subject. Noncompartmental pharmacokinetic analysis was subsequently applied to these projected concentrations of drug in the lung to determine values for AUC.
The area under the sputum concentration vs. time curve was estimated using the linear trapezoidal rule.

in vivo = conditions: male, Sprague-Dawley, rat, in vivo, 10 mg/kg
Procedure: This example relates to aerosol and intravenous administration of fluoroquinolones in saline. A rat pharmacokinetic model was used to compare intravenous and pulmonary administration of fluoroquinolones. […] Doses were administered via the lateral tail vein, or to the lung just above the tracheal bifurcation using a micro-spray aerosol device (Penn Century, Philadelphia, Pa.).
Approximately 0.3 ml blood samples were taken from 2-6 rats at each timepoint via an indwelling jugular vein cannula, and collected in lithium heparin tubes. Bronchial alveolar lavage (BAL) and lung tissue were collected following euthanasia. […] Sample concentrations were determined against a standard curve.

P. aeruginosa NH57388A [4] = assay: Chronic mouse lung infection model; format: in vivo; conditions: mice, twice daily for 72 h
Procedure: Bacterial cells were harvested by centrifugation (23,000×g, 30 min, at 4° C.) and resuspended in 3-6 ml of MHB. The supernatant was collected and placed in 80° C. water-bath for 30 min. […] The precipitated alginate was collected with a sterile bacterial loop and washed several times in sterile saline. The purified alginate was then resuspended in 10 ml of sterile saline and stirred vigorously to form a homogeneous suspension. […] The bacterial suspension was diluted (1:10) in the alginate suspension to yield about 10^8 CFU/ml. […] On day 4, the mice were infected using a curved bead-tipped oral gavage attached to a 1 ml syringe while under isoflurane anesthesia.

[5] = Mouse lung homogenate pharmacokinetics; conditions: IP, 20 mg/kg normalized to 60 mg/kg
Procedure: Mice were sacrificed at 0.08, 0.16, 0.25, 0.5, 0.75, 1.0, 2.0, 3.0, and 4.0 h after dosing and their lungs collected. […] Analytical standards (0.05 to 100 mg/L) were prepared in fresh mouse lung homogenate collected from untreated animals. […] Aliquots of the supernatant (25 μl) were injected directly onto the HPLC using a temperature-controlled autoinjector set at 10° C. Standard curves were constructed of the peak area versus standard concentration, and the data were fit using weighted linear regression (Microsoft Excel, Seattle, Wash.). […] The lung pharmacokinetic parameters were determined using WinNonlin (Pharsight, Mountain View, Calif.).

clinical = conditions: human, in vivo

C[C@H]1COc2c(N3CCN(C)CC3)c(F)cc3c(=O)c(C(=O)O)cn1c23 [Levofloxacin, levofloxacin]
MIC (P. aeruginosa NH57388A [1]): 2 µg/mL (≈ 5.53 µM) | MIC (P. aeruginosa ATCC 27853): 1 µg/mL (≈ 2.77 µM) | time to reach maximum levels of killing [2]: 10 to 20 min | Mean projected Cmax in the ELF ([3]; high dose (RDD 40 mg)): > 1000 µg/mL | Mean projected Cmax in the ELF ([3]; low dose (RDD 20 mg)): exceeded 500 μg/ml | time for which 50% of the lung dose remains in the lung ([3]; CF subjects, aerosol in saline, serum deconvolution): at least 0.5 hours | peak sputum concentrations higher than 750 mg oral dose ([3]; aerosol doses as low as 20 mg): 10 fold | AUC ([3]; 20 mg): 67100 ng·h/mL | Cmax ([3]; 20 mg): 86.2 µg/mL | half-life ([3]; 20 mg): 54 min | AUC ([3]; 40 mg): 171000 ng·h/mL | Cmax ([3]; 40 mg): 212 µg/mL | half-life ([3]; 40 mg): 78 min | clearance ([3]; 50 mg, CF subjects): 235 mL/min | clearance ([3]; 50 mg, NHV subjects): 287 mL/min | AUC ([3]; iv, 50 mg): 2500 ng·h/mL | Cmax ([3]; iv, 50 mg): 0.8 µg/mL | AUC ([3]; po, 750 mg): 93400 ng·h/mL | Cmax ([3]; po, 750 mg): 8.7 µg/mL | F, % from Lung vs IV (in vivo): 97% | MAT (in vivo): 0 h | AUC (in vivo; inhaled or intranasal): 3000 ng·h/mL | AUC(0-inf) (in vivo; inhaled or intranasal): 3700 ng·h/mL | MRT (in vivo; inhaled or intranasal): 42 min | half-life (in vivo; inhaled or intranasal): 30 min | AUC (in vivo; iv): 1600 ng·h/mL | AUC(0-inf) (in vivo; iv): 3800 ng·h/mL | MRT (in vivo; iv): 42 min | half-life (in vivo; iv): 30 min | log increase in bacterial counts (P. aeruginosa NH57388A [4]; intraperitoneal 15 mg/kg in saline): 0.83 log | log increase in bacterial counts (P. aeruginosa NH57388A [4]; intraperitoneal 30 mg/kg in saline): 0.32 log | log increase in bacterial counts (P. aeruginosa NH57388A [4]; intraperitoneal 60 mg/kg in saline): 0.15 log | AUC (Normalized to 60 mg/kg) [5]: 12.3 mg·h/kg | Cmax (Normalized to 60 mg/kg) [5]: 18.6 mg/kg | AUC(0-inf) (clinical; iv, 50 mg, Serum AUC(0-inf)): 3910 ng·h/mL | Cmax (clinical; iv, 50 mg, Serum Cmax): 2.55 µg/mL | half-life (clinical; iv, 50 mg, Serum t1/2, IV 50 mg): 353 min | AUC(0-inf) (clinical; iv, 50 mg, Sputum AUC(0-inf)): 5700 ng·h/mL | Cmax (clinical; iv, 50 mg, Sputum Cmax): 1.05 µg/mL | half-life (clinical; po, 750 mg): 402 min | AUC(0-inf) (clinical; po, 750 mg, Serum AUC(0-inf)): 76600 ng·h/mL | Cmax (clinical; po, 750 mg, Serum Cmax): 7.3 µg/mL | half-life (clinical; po, 750 mg, Serum t1/2, Oral 750 mg, CF patients): 456 min | AUC(0-inf) (clinical; po, 750 mg, Sputum AUC(0-inf)): 93400 ng·h/mL | Cmax (clinical; po, 750 mg, Sputum Cmax): 8.7 µg/mL
